Laboratory results published in patent US7879881B2, “Piperidinyl compounds that selectively bind integrins” (Janssen Pharmaceutica NV, priority 2002, dated 2011).
Like-named read-outs stand apart in the source and are kept apart here.

Experiments:
GP IIb/IIIa = GP IIb/IIIa (Homo sapiens, UniProt P05106+P08514); assay: In Vitro Solid Phase Purified GP IIb/IIIa Binding Assay (biotinylated fibrinogen); conditions: biotinylated fibrinogen binding to immobilized purified GP IIb/IIIa, mean ± spread
Procedure: In Vitro Solid Phase Purified GP IIb/IIIa Binding Assay
The plate was covered and incubated overnight at 4° C. The GP IIb/IIIa solution was discarded and 150 μL of 5% BSA was added and incubated at RT for 1-3 h. The plate was washed extensively with modified Tyrodes buffer. Biotinylated fibrinogen (25 μL/well) at 2× final concentration was added to the wells that contain the test compounds (25 μL/well). The plate was covered and incubated at RT for 2-4 h. Twenty minutes prior to incubation completion, one drop of Reagent A (VectaStain ABC Horseradish Peroxidase kit, Vector Laboratories, Inc.) and one drop Reagent B were added with mixing to 5 mL modified Tyrodes buffer mix and let stand. The ligand solution was discarded and the plate washed (5×200 μL/well) with modified Tyrodes buffer. […] The Vecta Stain solution was discarded and the wells washed (5×200 μL/well) with modified Tyrodes buffer. Developing buffer (10 mL of 50 mM citrate/phosphate buffer @ pH 5.3, 6 mg o-phenylenediamine, 6 μL 30% H2O2; 50 μL/well) was added and incubated at RT for 3-5 min and then 2 N H2SO4 (50 μL/well) was added.

human purified αVβ5 = molecular target: T1, human purified αVβ5 (Homo sapiens, UniProt P06756+P18084); assay: In Vitro Solid Phase Purified αcβ5 Binding Assay (vitronectin/αVβ5); conditions: vitronectin binding to immobilized purified human αVβ5, mean ± spread
T1 construct: purchased Chemicon International, Inc
Procedure: (§1) Human αvβ3 (Chemicon International Inc., Temecula, Calif.), at a concentration of 1 μg/ml dissolved in Tris buffer (20 mM Tris, 1 mM CaCl2, 1 mM MgCl2, 10 μM MnCl2, 150 mM NaCl), was immobilized on Immulon 96 well plates (Dynex Technologies, Chantilly, Va.) overnight at 4° C. Plates were washed and treated with blocking buffer (3% BSA in Tris buffer) for 2 h at 37° C. Plates were then rinsed 2 times with assay buffer comprised of Tris buffer. Synthesized compounds were added to wells in duplicate immediately prior to the addition of 2 nM vitronectin (Sigma, St. Louis, Mo.). Following a 3 hour incubation at 37° C., plates were washed 5 times in assay buffer. An anti-human vitronectin IgG rabbit polyclonal antibody (Calbiochem, San Diego, Calif.) was added (1:2000) and plates were incubated for 1 hour at room temperature. VectaStain ABC peroxidase kit reagents (Vector Laboratories, Burlingame, Calif.) employing a biotin labeled anti-rabbit IgG, were utilized for detection of bound antibody. Plates were read at 490 nm on a Molecular Devices (Sunnyvale, Calif.) microplate reader.
In Vitro Solid Phase Purified αcβ5 Binding Assay
All other aspects of the assay including buffers, reagents and incubation times remain unchanged.

Human αvβ3 = molecular target: T2, Human αvβ3 (Homo sapiens, UniProt P05106+P06756); assay: In Vitro Solid Phase Purified αvβ3 Binding Assay (vitronectin/αvβ3); conditions: vitronectin binding to immobilized purified human αvβ3, mean ± spread
T2 construct: purchased Chemicon International Inc., Temecula, Calif
Procedure: In Vitro Solid Phase Purified αvβ3 Binding Assay
as §1

T2 sequence (P06756 31-889 limits assumed): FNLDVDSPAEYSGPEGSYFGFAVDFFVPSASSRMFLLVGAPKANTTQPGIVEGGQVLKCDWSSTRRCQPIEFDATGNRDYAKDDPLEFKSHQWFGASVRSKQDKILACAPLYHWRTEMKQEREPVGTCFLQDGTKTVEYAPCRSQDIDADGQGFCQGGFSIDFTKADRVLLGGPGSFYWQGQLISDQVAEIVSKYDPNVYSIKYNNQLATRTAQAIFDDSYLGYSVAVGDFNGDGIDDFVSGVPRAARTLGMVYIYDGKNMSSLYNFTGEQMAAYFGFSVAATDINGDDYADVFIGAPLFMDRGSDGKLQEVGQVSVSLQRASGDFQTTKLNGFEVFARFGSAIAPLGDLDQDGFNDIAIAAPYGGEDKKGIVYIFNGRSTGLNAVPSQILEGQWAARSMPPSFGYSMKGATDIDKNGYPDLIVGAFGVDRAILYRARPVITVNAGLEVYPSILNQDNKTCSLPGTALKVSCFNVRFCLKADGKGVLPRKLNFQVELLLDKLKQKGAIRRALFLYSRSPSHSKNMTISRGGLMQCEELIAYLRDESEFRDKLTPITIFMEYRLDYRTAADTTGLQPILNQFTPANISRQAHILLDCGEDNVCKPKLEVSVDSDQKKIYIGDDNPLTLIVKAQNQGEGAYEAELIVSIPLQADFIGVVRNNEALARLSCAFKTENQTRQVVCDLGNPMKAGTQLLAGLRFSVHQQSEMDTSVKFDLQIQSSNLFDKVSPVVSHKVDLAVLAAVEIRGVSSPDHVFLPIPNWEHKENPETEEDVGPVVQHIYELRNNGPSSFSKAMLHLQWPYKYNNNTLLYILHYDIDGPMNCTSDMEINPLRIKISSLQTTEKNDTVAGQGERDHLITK
T2 sequence (P06756 891-1048 partner limits assumed): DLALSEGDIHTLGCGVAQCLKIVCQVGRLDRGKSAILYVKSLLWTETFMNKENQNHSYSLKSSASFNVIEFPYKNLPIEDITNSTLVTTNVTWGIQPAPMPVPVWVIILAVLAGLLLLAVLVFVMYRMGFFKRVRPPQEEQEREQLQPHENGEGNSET
T2 sequence (P05106 27-788): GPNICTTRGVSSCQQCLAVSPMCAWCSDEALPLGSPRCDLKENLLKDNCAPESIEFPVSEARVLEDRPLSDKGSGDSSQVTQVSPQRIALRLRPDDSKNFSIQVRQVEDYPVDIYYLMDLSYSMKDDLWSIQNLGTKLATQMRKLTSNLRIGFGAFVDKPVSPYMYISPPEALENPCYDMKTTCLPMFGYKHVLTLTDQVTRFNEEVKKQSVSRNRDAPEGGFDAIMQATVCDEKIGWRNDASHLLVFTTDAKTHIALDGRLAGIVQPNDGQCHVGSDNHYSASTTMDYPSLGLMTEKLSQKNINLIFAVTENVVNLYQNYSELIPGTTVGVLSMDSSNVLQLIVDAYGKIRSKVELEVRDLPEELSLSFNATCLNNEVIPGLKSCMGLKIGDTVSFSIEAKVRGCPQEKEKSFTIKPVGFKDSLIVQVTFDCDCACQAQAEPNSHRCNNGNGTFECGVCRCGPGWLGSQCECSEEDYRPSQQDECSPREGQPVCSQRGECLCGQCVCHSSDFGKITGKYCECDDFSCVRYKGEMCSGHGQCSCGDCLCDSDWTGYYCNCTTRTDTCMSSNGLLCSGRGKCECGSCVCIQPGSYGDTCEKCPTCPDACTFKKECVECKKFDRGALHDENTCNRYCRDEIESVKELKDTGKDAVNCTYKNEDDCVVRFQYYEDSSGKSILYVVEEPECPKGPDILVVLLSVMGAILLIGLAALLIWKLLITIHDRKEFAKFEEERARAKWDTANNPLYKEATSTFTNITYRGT
T1 sequence (P06756 31-889 limits assumed): as the sequence (P06756 31-889 limits assumed) above
T1 sequence (P06756 891-1048 partner limits assumed): as the sequence (P06756 891-1048 partner limits assumed) above
T1 sequence (P18084 24-799): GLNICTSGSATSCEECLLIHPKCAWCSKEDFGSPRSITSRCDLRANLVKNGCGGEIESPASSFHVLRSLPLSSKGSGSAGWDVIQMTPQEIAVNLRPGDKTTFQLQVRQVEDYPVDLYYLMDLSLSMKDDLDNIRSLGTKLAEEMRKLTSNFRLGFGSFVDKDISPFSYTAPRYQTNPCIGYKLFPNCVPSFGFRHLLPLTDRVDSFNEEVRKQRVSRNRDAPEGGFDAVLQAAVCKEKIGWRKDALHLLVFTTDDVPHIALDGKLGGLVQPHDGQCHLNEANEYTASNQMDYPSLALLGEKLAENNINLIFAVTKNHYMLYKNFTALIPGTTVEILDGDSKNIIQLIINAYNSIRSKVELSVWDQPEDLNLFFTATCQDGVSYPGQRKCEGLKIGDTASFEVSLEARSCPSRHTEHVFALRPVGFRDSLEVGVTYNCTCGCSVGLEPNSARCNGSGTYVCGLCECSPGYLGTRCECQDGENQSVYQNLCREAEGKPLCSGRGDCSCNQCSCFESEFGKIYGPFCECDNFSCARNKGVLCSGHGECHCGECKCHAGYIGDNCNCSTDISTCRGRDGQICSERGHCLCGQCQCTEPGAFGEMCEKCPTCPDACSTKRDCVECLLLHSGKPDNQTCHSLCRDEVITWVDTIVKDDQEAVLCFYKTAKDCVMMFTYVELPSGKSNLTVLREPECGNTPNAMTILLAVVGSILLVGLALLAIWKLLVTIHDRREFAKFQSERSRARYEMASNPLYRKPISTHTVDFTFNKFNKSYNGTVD
Sequence of GP IIb/IIIa (P08514 32-887 limits assumed): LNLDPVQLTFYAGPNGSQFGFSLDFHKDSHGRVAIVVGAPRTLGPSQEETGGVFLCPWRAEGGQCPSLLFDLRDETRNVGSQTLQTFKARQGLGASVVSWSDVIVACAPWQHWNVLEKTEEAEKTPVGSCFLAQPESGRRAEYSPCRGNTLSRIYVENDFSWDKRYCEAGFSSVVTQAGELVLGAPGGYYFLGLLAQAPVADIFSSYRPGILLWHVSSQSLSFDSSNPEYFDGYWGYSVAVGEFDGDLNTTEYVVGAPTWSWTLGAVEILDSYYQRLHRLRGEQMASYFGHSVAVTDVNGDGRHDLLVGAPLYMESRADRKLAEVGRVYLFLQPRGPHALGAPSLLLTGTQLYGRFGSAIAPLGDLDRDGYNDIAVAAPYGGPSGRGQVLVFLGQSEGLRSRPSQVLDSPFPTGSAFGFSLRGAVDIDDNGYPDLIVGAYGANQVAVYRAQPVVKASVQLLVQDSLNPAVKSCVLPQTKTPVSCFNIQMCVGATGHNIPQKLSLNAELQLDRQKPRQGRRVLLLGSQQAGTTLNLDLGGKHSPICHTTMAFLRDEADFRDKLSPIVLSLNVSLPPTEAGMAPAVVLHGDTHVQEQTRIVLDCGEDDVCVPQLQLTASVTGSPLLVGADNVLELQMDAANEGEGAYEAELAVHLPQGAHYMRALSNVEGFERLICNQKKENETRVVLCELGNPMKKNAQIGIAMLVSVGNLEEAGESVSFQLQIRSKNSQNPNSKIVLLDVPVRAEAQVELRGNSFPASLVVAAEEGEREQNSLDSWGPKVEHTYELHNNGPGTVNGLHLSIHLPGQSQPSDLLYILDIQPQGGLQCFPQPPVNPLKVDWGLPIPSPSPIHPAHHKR
Sequence of GP IIb/IIIa (P08514 891-1039 partner limits assumed): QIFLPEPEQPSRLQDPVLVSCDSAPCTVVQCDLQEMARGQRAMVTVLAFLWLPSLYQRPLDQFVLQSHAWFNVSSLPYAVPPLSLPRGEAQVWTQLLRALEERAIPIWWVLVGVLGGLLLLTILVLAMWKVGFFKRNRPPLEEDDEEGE
Sequence of GP IIb/IIIa (P05106 27-788): as the sequence (P05106 27-788) above

Structure (SMILES) | IC50 (GP IIb/IIIa; αIIbβ3 IC50 (uM)) | IC50 (human purified αVβ5; αvβ5 IC50 (uM)) | IC50 (Human αvβ3; αvβ3IC50 (uM)) | IC50 (GP IIb/IIIa; read-out: αIIbβ3 IC50) | IC50 (human purified αVβ5; read-out: αvβ5 IC50) | IC50 (Human αvβ3; read-out: αvβ3IC50)
O=C(O)CC(CC1CCN(C(=O)CCc2ccc3c(n2)NCCC3)CC1)c1cnc2c(c1)CCCC2 (racemic) [Cpd 57, 5,6,7,8-tetrahydro-β-[[1-[1-oxo-3-(5,6,7,8-tetrahydro-1,8-naphthyridin-2-yl)propyl]-4-piperidinyl]methyl]-3-quinolinepropanoic acid] | 3.04 ± 0.55 µM | 0.0109 ± 0.0042 µM | 0.0016 ± 0.0007 µM |  |  | 
COc1cccc(C(CC(=O)O)CC2CCN(C(=O)CCc3ccc4c(n3)NCCC4)CC2)c1 (racemic) [Cpd 59] |  |  |  | 7.81 ± 4.67 µM | 0.0096 ± 0.0038 µM | 0.0026 ± 0.0014 µM
COc1ccc(C(CC(=O)O)CC2CCN(C(=O)CCc3ccc4c(n3)NCCC4)CC2)cc1 (racemic) [Cpd 60] |  |  |  | 4.53 ± 2.47 µM | 0.0309 ± 0.0006 µM | 0.001 ± 0.0008 µM
O=C(O)CC(CC1CCN(C(=O)CCc2ccc3c(n2)NCCC3)CC1)C1CCOC1 (racemic) [Cpd 62] |  |  |  | > 50 µM | 0.17 ± 0.081 µM | 0.09 ± 0.002 µM
O=C(O)CC(CC1CCN(C(=O)CCc2ccc3c(n2)NCCC3)CC1)c1cccs1 (racemic) [Cpd 63] |  |  |  | 10.2 ± 6.41 µM | 0.007 ± 0.0008 µM | 0.0018 ± 0.0008 µM
NC(=O)CC(CC1CCN(C(=O)CCc2ccc3c(n2)NCCC3)CC1)c1cccc(F)c1 (racemic) [Cpd 64, 3-(3-Fluoro-phenyl)-4-[1-(3-5,6,7,8-tetrahydro-[1,8]naphthyridin-2-yl-propionyl)-piperidin-4-yl]-butyramide] |  |  |  | > 50 µM | 0.147 ± 0.0847 µM | 0.0615 ± 0.0055 µM
O=C(O)CC(CC1CCN(C(=O)CCc2ccc3c(n2)NCCC3)CC1)c1ccc2c(c1)OCCO2 (racemic) [Cpd 65] |  |  |  | 3.84 µM | 0.0346 ± 0.0002 µM | 0.0008 µM
CSc1cccc(C(CC(=O)O)CC2CCN(C(=O)CCc3ccc4c(n3)NCCC4)CC2)c1 (racemic) [Cpd 66] |  |  |  | 28.3 µM | 0.0103 ± 0.0014 µM | 0.0012 ± 0.0001 µM
CN1CC(C(CC(=O)O)CC2CCN(C(=O)CCc3ccc4c(n3)NCCC4)CC2)Cc2ccccc21 (racemic) [Cpd 67, N-Methyl-1,2,3,4-tetrahydro-β-[[1-[1-oxo-3-(5,6,7,8-tetrahydro-1,8-naphthyridin-2-yl)propyl]-4-piperidinyl]methyl]-3-quinolinepropanoic acid] |  | 0.176 ± 0.035 µM | 0.048 ± 0.003 µM | 7.82 µM |  | 
CN(C)c1cccc(C(CC(=O)O)CC2CCN(C(=O)CCc3ccc4c(n3)NCCC4)CC2)c1 (racemic) [Cpd 75] |  |  |  | > 50 µM | 0.0419 ± 0.0052 µM | 0.0053 ± 0.001 µM
COc1cc(C(CC(=O)O)CC2CCN(C(=O)CCc3ccc4c(n3)NCCC4)CC2)ccc1O (racemic) [Cpd 76, 3-(4-Hydroxy-3-methoxy-phenyl)-4-[1-(3-5,6,7,8-tetrahydro-[1,8]naphthyridin-2-yl-propionyl)-piperidin-4-yl]-butyric acid] |  |  |  | 5.38 µM | 0.0397 ± 0.0121 µM | 0.0018 ± 0.0003 µM
O=C(O)CC(CC1CCN(C(=O)c2cccc(NC3=NCCN3)c2)CC1)c1cccc(F)c1 (racemic) [Cpd 77] |  |  |  |  | 0.789 ± 0.065 µM | 0.138 µM
CCNc1cccc(C(CC(=O)O)CC2CCN(C(=O)CCc3ccc4c(n3)NCCC4)CC2)c1 (racemic) [Cpd 78, 3-(3-Ethylamino-phenyl)-4-[1-(3-5,6,7,8-tetrahydro-[1,8]naphthyridin-2-yl-propionyl)-piperidin-4-yl]-butyric acid] |  |  |  | 24.7 µM | 0.026 ± 0.003 µM | 0.0057 ± 0.0001 µM
CNc1cccc(C(CC(=O)O)CC2CCN(C(=O)CCc3ccc4c(n3)NCCC4)CC2)c1 (racemic) [Cpd 79, 3-(3-Methylamino-phenyl)-4-[1-(3-5,6,7,8-tetrahydro-[1,8]naphthyridin-2-yl-propionyl)-piperidin-4-yl]-butyric acid] |  |  |  | 40.2 µM | 0.025 ± 0.006 µM | 0.0035 ± 0.0015 µM
O=C(O)CC(CC1CCN(CCCc2ccc3c(n2)NCCC3)CC1)c1cccc(F)c1 (racemic) [Cpd 81, 3-(3-Fluoro-phenyl)-4-[1-(3-5,6,7,8-tetrahydro-[1,8]naphthyridin-2-yl-propyl]-piperidin-4-yl]-butyric acid] |  |  |  | 22.7 µM | 0.0101 ± 0.0017 µM | 0.0067 ± 0.0002 µM
O=C(O)CC(C1CCN(C(=O)CCCc2ccc3c(n2)NCCC3)CC1)C1CNc2ccccc2C1 (single isomer, unassigned) [Cpd 5-3, 1,2,3,4-Tetrahydro-β-[1-[1-oxo-4-(5,6,7,8-tetrahydro-1,8-naphthyridin-2-yl)butyl]-4-piperidinyl]-3-quinolinepropanoic acid] |  |  | 0.161 µM |  | > 5 µM | 
O=C(O)CC(C1CCN(C(=O)CCCc2ccc3c(n2)NCCC3)CC1)C1CNc2ccccc2C1 (single isomer, unassigned) [Cpd 5-4, 1,2,3,4-Tetrahydro-β-[1-[1-oxo-4-(5,6,7,8-tetrahydro-1,8-naphthyridin-2-yl)butyl]-4-piperidinyl]-3-quinolinepropanoic acid] |  | 0.162 ± 0.0627 µM | 0.0054 ± 0.0002 µM | 9.82 µM |  | 
O=C(O)CC(CC1CCN(C(=O)CCc2ccc3c(n2)NCCC3)CC1)C1CNc2ccccc2C1 (single isomer, unassigned) [Cpd 19-1, 1,2,3,4-tetrahydro-β-[[1-[1-oxo-3-(5,6,7,8-tetrahydro-1,8-naphthyridin-2-yl)propyl]-4-piperidinyl]methyl]-3-quinolinepropanoic acid] |  |  |  | > 50 µM | 1.12 µM | 0.0367 µM
O=C(O)CC(CC1CCN(C(=O)CCc2ccc3c(n2)NCCC3)CC1)C1CNc2ccccc2C1 (single isomer, unassigned) [Cpd 19-2, 1,2,3,4-tetrahydro-β-[[1-[1-oxo-3-(5,6,7,8-tetrahydro-1,8-naphthyridin-2-yl)propyl]-4-piperidinyl]methyl]-3-quinolinepropanoic acid] |  |  |  | 12.9 µM | 0.0092 ± 0.0004 µM | 0.0013 ± 0.0001 µM
O=C(O)CC(CC1CCN(C(=O)CCc2ccc3c(n2)NCCC3)CC1)C1CNc2ccccc2C1 (single isomer, unassigned) [Cpd 19-3, 1,2,3,4-tetrahydro-β-[[1-[1-oxo-3-(5,6,7,8-tetrahydro-1,8-naphthyridin-2-yl)propyl]-4-piperidinyl]methyl]-3-quinolinepropanoic acid] |  |  |  |  | 1.17 ± 0.02 µM | 0.0447 ± 0.0204 µM
O=C(O)CC(CC1CCN(C(=O)CCc2ccc3c(n2)NCCC3)CC1)C1CNc2ccccc2C1 (single isomer, unassigned) [Cpd 19-4, 1,2,3,4-tetrahydro-β-[[1-[1-oxo-3-(5,6,7,8-tetrahydro-1,8-naphthyridin-2-yl)propyl]-4-piperidinyl]methyl]-3-quinolinepropanoic acid] |  |  |  | 4.86 µM | 0.0075 ± 0.0018 µM | 0.0013 ± 0.0007 µM
COc1ccc(C(CCC2CCN(C(=O)CCc3ccc4c(n3)NCCC4)CC2)CC(=O)O)cn1 (single isomer, unassigned) [Cpd 21a, 6-methoxy-β-[2-[1-[1-oxo-3-(5,6,7,8-tetrahydro-1,8-naphthyridin-2-yl)propyl]-4-piperidinyl]ethyl]-3-pyridinepropanoic acid] |  |  |  | 5.31 µM | 0.841 ± 0.405 µM | 0.0213 ± 0.0019 µM
O=C(O)CC(CC1CCN(C(=O)CCc2ccc3c(n2)NCCC3)CC1)c1ccc2ccccc2c1 (single isomer, unassigned) [Cpd 56b, 3-Naphthalen-2-yl-4-[1-(3-5,6,7,8-tetrahydro-[1,8]naphthyridin-2-yl-propionyl)-piperidin-4-yl]-butyric acid] |  |  |  |  | 0.81 ± 0.104 µM | 0.326 ± 0.0894 µM
O=C(O)CCC1CCN(C(=O)CCc2cccc(NC3=NCCCN3)c2)CC1 [Cpd 2, 1-[1-Oxo-3-[3-[(1,4,5,6-tetrahydro-2-pyrimidinyl)amino]phenyl]propyl]-4-piperidinepropanoic acid] |  |  |  | 4.78 ± 1.01 µM |  | 5.4 µM
O=C(O)CC(CCC1CCN(C(=O)CCCNc2ccccn2)CC1)c1cccnc1 (stereo not drawn) [Cpd 9, β-[2-[1-[1-Oxo-4-(2-pyridinylamino)butyl]-4-piperidinyl]ethyl]-3-pyridinepropanoic acid] |  |  |  | 8.51 ± 2.36 µM |  | > 1 µM
